{"source": "patent US12102089B2", "about": "“Method for inactivating mold spores” (DSM IP ASSETS B.V., priority 2017, dated 2024)", "system": "in-house strain of Aspergillus niger", "assay": "Heat treatment of in-house Aspergillus niger spores in ice tea with natamycin, visual growth", "format": "cell-based", "design": "key to growth or no growth: growth (+); no growth (−)", "procedure": "Commercially available ice tea (Lipton, peach flavor, non-carbonated, 1.5 L) was adjusted to high water hardness by adding 1 ml of a solution of 39 g CaCl2 and 27 g MgCl2 added to 934 g water. ⅓ of this ice tea preparation (the pH of which was 3.15) was left as-such, ⅓ of the preparation was enriched with 5 ppm natamycin and ⅓ of the preparation was enriched with 10 ppm natamycin. Samples of 5 ml were made from each preparation in 15 ml sterile plastic tubes. Of each preparation 8 samples were pre-heated to the desired pasteurization temperature using a water bath. Temperatures used were RT, 60, 65, 70, 75, 80, 85 and 90° C. When the desired temperature was reached, 100 μl of a 2500 spores/ml spore suspension of Aspergillus niger ATCC 9029AA was added to each tube. Subsequently, the samples were kept for 30 seconds at the temperature in question in the water bath. Next, the samples were cooled on ice to a temperature of 25° C. Samples were incubated at 25° C. and visually examined for growth (formation of mold flakes or turbidity) for two months. Additionally, samples were enumerated according to ISO protocol 21527-1.2008 on day 0 (before heat treatment) and day 1 (after heat treatment) to count immediate loss of viability. […] For the results, see Table 1. […] For comparative reasons, Example 1 was repeated with an in-house strain of Aspergillus niger. […] For the results, see Table 2."}
{"smiles": "C[C@@H]1C/C=C/C=C/C=C/C=C/[C@H](O[C@@H]2O[C@H](C)[C@@H](O)[C@H](N)[C@@H]2O)C[C@@H]2O[C@](O)(C[C@@H](O)C[C@H]3O[C@@H]3/C=C/C(=O)O1)C[C@H](O)[C@H]2C(=O)O", "note": "[natamycin]", "values": [{"measurement": "growth or no growth", "setting": "60°C, 5 ppm, day 1", "value": "−"}, {"measurement": "growth or no growth", "setting": "60°C, 5 ppm, day 2", "value": "−"}, {"measurement": "growth or no growth", "setting": "60°C, 5 ppm, day 3", "value": "−"}, {"measurement": "growth or no growth", "setting": "60°C, 5 ppm, day 4", "value": "−"}, {"measurement": "growth or no growth", "setting": "60°C, 5 ppm, day 5", "value": "−"}, {"measurement": "growth or no growth", "setting": "60°C, 5 ppm, day 6", "value": "−"}, {"measurement": "growth or no growth", "setting": "60°C, 5 ppm, day 7", "value": "+"}, {"measurement": "growth or no growth", "setting": "60°C, 5 ppm, day 8", "value": "+"}, {"measurement": "growth or no growth", "setting": "60°C, 5 ppm, day 9", "value": "+"}, {"measurement": "growth or no growth", "setting": "60°C, 5 ppm, day 10", "value": "+"}, {"measurement": "growth or no growth", "setting": "60°C, 5 ppm, day 11", "value": "+"}, {"measurement": "growth or no growth", "setting": "60°C, 5 ppm, day 12", "value": "+"}, {"measurement": "growth or no growth", "setting": "60°C, 5 ppm, day 13", "value": "+"}, {"measurement": "growth or no growth", "setting": "60°C, 5 ppm, day 14", "value": "+"}, {"measurement": "growth or no growth", "setting": "60°C, 10 ppm, day 1", "value": "−"}, {"measurement": "growth or no growth", "setting": "60°C, 10 ppm, day 2", "value": "−"}, {"measurement": "growth or no growth", "setting": "60°C, 10 ppm, day 3", "value": "−"}, {"measurement": "growth or no growth", "setting": "60°C, 10 ppm, day 4", "value": "−"}, {"measurement": "growth or no growth", "setting": "60°C, 10 ppm, day 5", "value": "−"}, {"measurement": "growth or no growth", "setting": "60°C, 10 ppm, day 6", "value": "−"}, {"measurement": "growth or no growth", "setting": "60°C, 10 ppm, day 7", "value": "−"}, {"measurement": "growth or no growth", "setting": "60°C, 10 ppm, day 8", "value": "−"}, {"measurement": "growth or no growth", "setting": "60°C, 10 ppm, day 9", "value": "−"}, {"measurement": "growth or no growth", "setting": "60°C, 10 ppm, day 10", "value": "−"}, {"measurement": "growth or no growth", "setting": "60°C, 10 ppm, day 11", "value": "+"}, {"measurement": "growth or no growth", "setting": "60°C, 10 ppm, day 12", "value": "+"}, {"measurement": "growth or no growth", "setting": "60°C, 10 ppm, day 13", "value": "+"}, {"measurement": "growth or no growth", "setting": "60°C, 10 ppm, day 14", "value": "+"}, {"measurement": "germination", "setting": "65° C., 70° C. and 80° C., in the presence of natamycin", "value": "no germination occurred"}, {"measurement": "growth or no growth", "setting": "65°C, 5 ppm, day 1", "value": "−"}, {"measurement": "growth or no growth", "setting": "65°C, 5 ppm, day 2", "value": "−"}, {"measurement": "growth or no growth", "setting": "65°C, 5 ppm, day 3", "value": "−"}, {"measurement": "growth or no growth", "setting": "65°C, 5 ppm, day 4", "value": "−"}, {"measurement": "growth or no growth", "setting": "65°C, 5 ppm, day 5", "value": "−"}, {"measurement": "growth or no growth", "setting": "65°C, 5 ppm, day 6", "value": "−"}, {"measurement": "growth or no growth", "setting": "65°C, 5 ppm, day 7", "value": "−"}, {"measurement": "growth or no growth", "setting": "65°C, 5 ppm, day 8", "value": "−"}, {"measurement": "growth or no growth", "setting": "65°C, 5 ppm, day 9", "value": "−"}, {"measurement": "growth or no growth", "setting": "65°C, 5 ppm, day 10", "value": "−"}, {"measurement": "growth or no growth", "setting": "65°C, 5 ppm, day 11", "value": "−"}, {"measurement": "growth or no growth", "setting": "65°C, 5 ppm, day 12", "value": "−"}, {"measurement": "growth or no growth", "setting": "65°C, 5 ppm, day 13", "value": "−"}, {"measurement": "growth or no growth", "setting": "65°C, 5 ppm, day 14", "value": "−"}, {"measurement": "growth or no growth", "setting": "65°C, 10 ppm, day 1", "value": "−"}, {"measurement": "growth or no growth", "setting": "65°C, 10 ppm, day 2", "value": "−"}, {"measurement": "growth or no growth", "setting": "65°C, 10 ppm, day 3", "value": "−"}, {"measurement": "growth or no growth", "setting": "65°C, 10 ppm, day 4", "value": "−"}, {"measurement": "growth or no growth", "setting": "65°C, 10 ppm, day 5", "value": "−"}, {"measurement": "growth or no growth", "setting": "65°C, 10 ppm, day 6", "value": "−"}, {"measurement": "growth or no growth", "setting": "65°C, 10 ppm, day 7", "value": "−"}, {"measurement": "growth or no growth", "setting": "65°C, 10 ppm, day 8", "value": "−"}, {"measurement": "growth or no growth", "setting": "65°C, 10 ppm, day 9", "value": "−"}, {"measurement": "growth or no growth", "setting": "65°C, 10 ppm, day 10", "value": "−"}, {"measurement": "growth or no growth", "setting": "65°C, 10 ppm, day 11", "value": "−"}, {"measurement": "growth or no growth", "setting": "65°C, 10 ppm, day 12", "value": "−"}, {"measurement": "growth or no growth", "setting": "65°C, 10 ppm, day 13", "value": "−"}, {"measurement": "growth or no growth", "setting": "65°C, 10 ppm, day 14", "value": "−"}, {"measurement": "growth or no growth", "setting": "70°C, 5 ppm, day 1", "value": "−"}, {"measurement": "growth or no growth", "setting": "70°C, 5 ppm, day 2", "value": "−"}, {"measurement": "growth or no growth", "setting": "70°C, 5 ppm, day 3", "value": "−"}, {"measurement": "growth or no growth", "setting": "70°C, 5 ppm, day 4", "value": "−"}, {"measurement": "growth or no growth", "setting": "70°C, 5 ppm, day 5", "value": "−"}, {"measurement": "growth or no growth", "setting": "70°C, 5 ppm, day 6", "value": "−"}, {"measurement": "growth or no growth", "setting": "70°C, 5 ppm, day 7", "value": "−"}, {"measurement": "growth or no growth", "setting": "70°C, 5 ppm, day 8", "value": "−"}, {"measurement": "growth or no growth", "setting": "70°C, 5 ppm, day 9", "value": "−"}, {"measurement": "growth or no growth", "setting": "70°C, 5 ppm, day 10", "value": "−"}, {"measurement": "growth or no growth", "setting": "70°C, 5 ppm, day 11", "value": "−"}, {"measurement": "growth or no growth", "setting": "70°C, 5 ppm, day 12", "value": "−"}, {"measurement": "growth or no growth", "setting": "70°C, 5 ppm, day 13", "value": "−"}, {"measurement": "growth or no growth", "setting": "70°C, 5 ppm, day 14", "value": "−"}, {"measurement": "growth or no growth", "setting": "70°C, 10 ppm, day 1", "value": "−"}, {"measurement": "growth or no growth", "setting": "70°C, 10 ppm, day 2", "value": "−"}, {"measurement": "growth or no growth", "setting": "70°C, 10 ppm, day 3", "value": "−"}, {"measurement": "growth or no growth", "setting": "70°C, 10 ppm, day 4", "value": "−"}, {"measurement": "growth or no growth", "setting": "70°C, 10 ppm, day 5", "value": "−"}, {"measurement": "growth or no growth", "setting": "70°C, 10 ppm, day 6", "value": "−"}, {"measurement": "growth or no growth", "setting": "70°C, 10 ppm, day 7", "value": "−"}, {"measurement": "growth or no growth", "setting": "70°C, 10 ppm, day 8", "value": "−"}, {"measurement": "growth or no growth", "setting": "70°C, 10 ppm, day 9", "value": "−"}, {"measurement": "growth or no growth", "setting": "70°C, 10 ppm, day 10", "value": "−"}, {"measurement": "growth or no growth", "setting": "70°C, 10 ppm, day 11", "value": "−"}, {"measurement": "growth or no growth", "setting": "70°C, 10 ppm, day 12", "value": "−"}, {"measurement": "growth or no growth", "setting": "70°C, 10 ppm, day 13", "value": "−"}, {"measurement": "growth or no growth", "setting": "70°C, 10 ppm, day 14", "value": "−"}, {"measurement": "growth or no growth", "setting": "75°C, 5 ppm, day 1", "value": "−"}, {"measurement": "growth or no growth", "setting": "75°C, 5 ppm, day 2", "value": "−"}, {"measurement": "growth or no growth", "setting": "75°C, 5 ppm, day 3", "value": "−"}, {"measurement": "growth or no growth", "setting": "75°C, 5 ppm, day 4", "value": "−"}, {"measurement": "growth or no growth", "setting": "75°C, 5 ppm, day 5", "value": "−"}, {"measurement": "growth or no growth", "setting": "75°C, 5 ppm, day 6", "value": "−"}, {"measurement": "growth or no growth", "setting": "75°C, 5 ppm, day 7", "value": "−"}, {"measurement": "growth or no growth", "setting": "75°C, 5 ppm, day 8", "value": "−"}, {"measurement": "growth or no growth", "setting": "75°C, 5 ppm, day 9", "value": "−"}, {"measurement": "growth or no growth", "setting": "75°C, 5 ppm, day 10", "value": "−"}, {"measurement": "growth or no growth", "setting": "75°C, 5 ppm, day 11", "value": "−"}, {"measurement": "growth or no growth", "setting": "75°C, 5 ppm, day 12", "value": "−"}, {"measurement": "growth or no growth", "setting": "75°C, 5 ppm, day 13", "value": "−"}, {"measurement": "growth or no growth", "setting": "75°C, 5 ppm, day 14", "value": "−"}, {"measurement": "growth or no growth", "setting": "75°C, 10 ppm, day 9", "value": "−"}, {"measurement": "growth or no growth", "setting": "75°C, 10 ppm, day 10", "value": "−"}, {"measurement": "germination", "setting": "RT and 60° C., 5 ppm natamycin", "value": "delayed germination"}, {"measurement": "germination", "setting": "RT and 60° C., 10 ppm natamycin", "value": "longer delay"}]}
